Marks after values point to notes of the source that are not given here.
System: apomorphine-induced emesis
Experiment: Apomorphine emetic challenge in beagle dogs
Format: in vivo, beagle dog
Settings: 3.0 mg/kg oral, apomorphine 0.1 mg/kg iv 2 hours later, 5 dogs
Description: Over the five (5) weeks of the study, each animal receives each of the treatments, but only one per week. The purpose of this study is to determine if tradipitant suppresses apomorphine-induced emesis.
All animals are dosed over a period of five (5) weeks, with each dog receiving one of five different treatments on each day of dosing.
All dogs are fasted overnight prior to each treatment day and then fed approximately one (1) hour after oral dosing (approximately one (1) hour prior to administration of apomorphine). Individual doses are adjusted weekly for changes in body weight.
The dose regimen consists of a 5×5 Latin square design, in which each subject receives 1 dose or dose combination per week (6 day washout) as shown in Table 3 below.

## C[C@@H](O[C@H]1OCCN(Cc2n[nH]c(=O)[nH]2)[C@H]1c1ccc(F)cc1)c1cc(C(F)(F)F)cc(C(F)(F)F)c1 [Aprepitant, reference compound]
  Total No. Emetic Episodes: 1**
